Results from article PMC7181201, “Dual P-Glycoprotein and CA XII Inhibitors: A New Strategy to Reverse the P-gp Mediated Multidrug Resistance (MDR) in Cancer Cells” (Molecules, 2020).

Legend:
P-gp = molecular target: T1, P-gp (Homo sapiens, UniProt P08183); assay: Rhodamine-123 uptake test on K562/DOX cells (flow cytometry); format: cell-based
T1 construct: doxorubicin resistant K562/DOX cell line overexpresses almost exclusively the transporter membrane protein P-gp; endogenous in cells; host or cells: K562/DOX (doxorubicin-selected human erythroleukemia cells)
T1 sequence (P08183 whole entry): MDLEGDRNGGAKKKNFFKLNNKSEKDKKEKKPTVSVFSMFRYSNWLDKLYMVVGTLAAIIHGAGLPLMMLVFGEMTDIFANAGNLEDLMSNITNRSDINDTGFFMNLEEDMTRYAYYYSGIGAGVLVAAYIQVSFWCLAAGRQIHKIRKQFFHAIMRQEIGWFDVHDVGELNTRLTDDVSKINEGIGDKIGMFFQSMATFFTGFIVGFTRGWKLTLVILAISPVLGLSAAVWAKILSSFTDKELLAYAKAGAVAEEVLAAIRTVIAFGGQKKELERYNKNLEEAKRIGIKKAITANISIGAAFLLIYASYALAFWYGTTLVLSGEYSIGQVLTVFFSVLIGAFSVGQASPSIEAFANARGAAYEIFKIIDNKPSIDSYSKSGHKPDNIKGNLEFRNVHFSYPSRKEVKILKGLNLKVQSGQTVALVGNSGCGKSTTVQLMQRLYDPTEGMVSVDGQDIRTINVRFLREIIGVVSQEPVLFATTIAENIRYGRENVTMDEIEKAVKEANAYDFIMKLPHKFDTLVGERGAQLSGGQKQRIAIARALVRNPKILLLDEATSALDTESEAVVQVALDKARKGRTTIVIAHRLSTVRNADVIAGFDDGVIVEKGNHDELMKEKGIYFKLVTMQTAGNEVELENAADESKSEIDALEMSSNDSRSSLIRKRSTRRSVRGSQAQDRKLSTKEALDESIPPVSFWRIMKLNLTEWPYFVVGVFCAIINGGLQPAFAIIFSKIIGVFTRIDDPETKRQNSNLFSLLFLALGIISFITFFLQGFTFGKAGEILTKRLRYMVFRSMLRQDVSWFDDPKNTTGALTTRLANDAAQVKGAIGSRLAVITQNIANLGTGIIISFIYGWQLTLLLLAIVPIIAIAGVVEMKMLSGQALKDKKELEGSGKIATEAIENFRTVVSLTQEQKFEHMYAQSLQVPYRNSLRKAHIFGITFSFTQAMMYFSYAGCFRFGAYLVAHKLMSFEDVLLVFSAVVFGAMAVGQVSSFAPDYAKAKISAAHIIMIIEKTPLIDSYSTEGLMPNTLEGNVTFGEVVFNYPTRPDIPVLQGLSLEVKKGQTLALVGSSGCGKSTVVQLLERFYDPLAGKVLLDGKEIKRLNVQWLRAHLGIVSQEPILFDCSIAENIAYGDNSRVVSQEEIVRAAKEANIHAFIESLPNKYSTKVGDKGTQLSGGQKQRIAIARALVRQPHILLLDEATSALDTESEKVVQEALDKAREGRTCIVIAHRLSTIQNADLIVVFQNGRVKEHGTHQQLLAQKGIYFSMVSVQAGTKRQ
Description: The results were expressed as the FR (fluorescence ratio), which is the ratio between the average fluorescence intensity of rhodamine in the presence and in the absence of modulators. Value 1 was attributed to the average fluorescence intensity of the samples exposed only to rhodamine.
An aliquot of cells (control) was incubated with the fluorochrome in the absence of inhibitors.
At the end of the uptake, cells were sedimented, washed twice in ice-cold PBS, placed in PBS on ice, and kept in the dark until flow cytometric analysis.
The histograms were generated by program GraphPad Prism 5 (GraphPad Prism software, Inc., San Diego, CA, USA); the data were obtained from the ratio between the average fluorescence intensity of the samples preincubated with the compounds under study and subsequently exposed to rhodamine, and the fluorescence of the sample exposed only to the rhodamine.

hCA I = molecular target: T2, hCA I (Homo sapiens, UniProt P00915); assay: Stopped-flow CO2 hydrase assay, hCA I; format: biochemical; settings: mean from 3 assays
T2 construct: made in house
T2 sequence (P00915 whole entry): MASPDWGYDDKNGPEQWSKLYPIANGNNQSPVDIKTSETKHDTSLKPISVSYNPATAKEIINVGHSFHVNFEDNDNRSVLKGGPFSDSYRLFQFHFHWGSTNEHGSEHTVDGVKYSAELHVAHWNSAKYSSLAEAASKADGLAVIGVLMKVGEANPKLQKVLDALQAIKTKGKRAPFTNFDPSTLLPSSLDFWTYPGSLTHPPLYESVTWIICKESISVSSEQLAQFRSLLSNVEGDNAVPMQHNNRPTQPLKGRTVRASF
Description: (§1) An SX.18MV-R Applied Photophysics (Oxford, UK) stopped-flow instrument was used to assay the catalytic/inhibition of various CA isozymes. […] Saturated CO2 solutions in water at 25 °C were used as a substrate. Stock solutions of inhibitors were prepared at a concentration of 10 μM (in DMSO-water 1:1, v/v) and dilutions up to 0.01 nM done with the assay buffer mentioned above. […] Inhibitor and enzyme solutions were preincubated together for 10 min at room temperature prior to the assay, in order to allow for the formation of the E–I complex. […] The inhibition constants were obtained by non-linear least-squares methods using the Cheng–Prusoff equation, as reported earlier, and represent the mean from at least three different determinations. All CA isozymes used here were recombinant proteins obtained as reported earlier by our group.

hCA II = molecular target: T3, hCA II (Homo sapiens, UniProt P00918); assay: Stopped-flow CO2 hydrase assay, hCA II; format: biochemical; settings: for Ki: stopped flow, mean from 3 assays; for hCA II vs. hCA XII preference: ratio of Ki values
T3 construct: made in house
Description: as §1

hCA IX = molecular target: T4, hCA IX (Homo sapiens, UniProt Q16790); assay: Stopped-flow CO2 hydrase assay, hCA IX; format: biochemical; settings: for Ki: stopped flow, mean from 3 assays
T4 construct: made in house
Description: as §1

hCA XII = molecular target: T5, hCA XII (Homo sapiens, UniProt O43570); assay: Stopped-flow CO2 hydrase assay, hCA XII; format: biochemical; settings: for Ki: stopped flow, mean from 3 assays
T5 construct: made in house
T5 sequence (O43570 25-354): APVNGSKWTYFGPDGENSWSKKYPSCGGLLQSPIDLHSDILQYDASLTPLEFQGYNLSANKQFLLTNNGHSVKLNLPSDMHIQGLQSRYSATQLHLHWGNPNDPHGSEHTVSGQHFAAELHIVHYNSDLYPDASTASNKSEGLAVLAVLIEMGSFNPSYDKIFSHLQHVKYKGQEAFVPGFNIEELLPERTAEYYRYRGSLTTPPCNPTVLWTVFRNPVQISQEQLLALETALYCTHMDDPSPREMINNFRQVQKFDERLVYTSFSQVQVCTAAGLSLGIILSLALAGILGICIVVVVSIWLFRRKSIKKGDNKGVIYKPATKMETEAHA
Description: as §1

| Structure (SMILES) | FR (fluorescence ratio, Rhd 123 uptake with/without modulator) (P-gp; compound 3 µM) | FR (fluorescence ratio, Rhd 123 uptake with/without modulator) (P-gp; compound 30 µM) | Ki (hCA I) [nM] | Ki (hCA II) [nM] | Ki (hCA IX) [nM] | Ki (hCA XII) [nM] | hCA II vs. hCA XII preference (hCA II) [times] | preference for hCA XII with respect to hCA IX (hCA XII; ratio of Ki values) | more potent on hCA IX than on hCA XII (hCA IX; ratio of Ki values) |
| --- | --- | --- | --- | --- | --- | --- | --- | --- | --- |
| COc1cc(/C=C/C(=O)OCCCN(C)CCCOC(=O)COc2ccc3ccc(=O)oc3c2)cc(OC)c1OC [Compound 1, (E)-3-(methyl(3-(2-((2-oxo-2H-chromen-7-yl)oxy)acetoxy)propyl)amino)propyl 3-(3,4,5-trimethoxyphenyl)acrylate] | 1.44 | 4.76 | > 10000 | > 10000 | 142 | 9.3 | – | – | – |
| COc1cc(C(=O)OCCCN(C)CCCCCOC(=O)COc2ccc3ccc(=O)oc3c2)cc(OC)c1OC [Compound 9, 3-(methyl(5-(2-((2-oxo-2H-chromen-7-yl)oxy)acetoxy)pentyl)amino)propyl 3,4,5-trimethoxy benzoate] | 1.00 | 3.95 | > 10000 | > 10000 | 133 | 9.2 | – | – | – |
| CN(CCCCCCOC(=O)c1c2ccccc2cc2ccccc12)CCCOC(=O)c1ccc(S(N)(=O)=O)cc1 [Compound 27, 6-(methyl(3-((4-sulfamoylbenzoyl)oxy)propyl)amino)hexyl anthracene-9-carboxylate] | 1.08 | 2.03 | 617 | 422 | 28.2 | 31.3 | – | – | – |
| COc1cc(C(=O)OCCCCCCCN(C)CCOC(=O)COc2ccc3ccc(=O)oc3c2)cc(OC)c1OC [Compound 11, 7-(methyl(2-(2-((2-oxo-2H-chromen-7-yl)oxy)acetoxy)ethyl)amino)heptyl 3,4,5-trimethoxy benzoate] | 1.11 | 1.58 | > 10000 | > 10000 | 97.1 | 8.3 | – | – | – |
| COc1cc(/C=C/C(=O)OCCCCCCN(C)CCCOC(=O)c2ccc(S(N)(=O)=O)cc2)cc(OC)c1OC [Compound 19, (E)-3-(methyl(6-((3-(3,4,5-trimethoxyphenyl)acryloyl)oxy)hexyl)amino)propyl 4-sulfamoyl benzoate] | 1.06 | 3.23 | 510 | 8.4 | 39.7 | 58.6 | 7 | – | – |
| COc1cc(/C=C/C(=O)OCCCCCN(C)CCCCCOC(=O)c2ccc(S(N)(=O)=O)cc2)cc(OC)c1OC [Compound 18, (E)-5-(methyl(5-((3-(3,4,5-trimethoxyphenyl)acryloyl)oxy)pentyl)amino)pentyl 4-sulfamoyl benzoate] | 1.00 | 4.99 | 62.6 | 425 | 226 | 62.6 | – | – | – |
| COc1cc(/C=C/C(=O)OCCCCCN(C)CCCCCOC(=O)COc2ccc3ccc(=O)oc3c2)cc(OC)c1OC [Compound 4, (E)-5-(methyl(5-(2-((2-oxo-2H-chromen-7-yl)oxy)acetoxy)pentyl)amino)pentyl 3-(3,4,5-trimethoxyphenyl)acrylate] | 1.99 | 5.45 | > 10000 | > 10000 | 26.6 | 18.9 | – | – | – |
| COc1cc(/C=C/C(=O)OCCCCCN(C)CCCOC(=O)COc2ccc3ccc(=O)oc3c2)cc(OC)c1OC [Compound 3, (E)-5-(methyl(3-(2-((2-oxo-2H-chromen-7-yl)oxy)acetoxy)propyl)amino)pentyl 3-(3,4,5-trimethoxyphenyl)acrylate] | 1.00 | 2.58 | > 10000 | > 10000 | 54.6 | 48.8 | – | – | – |
| CN(CCCCCCOC(=O)c1c2ccccc2cc2ccccc12)CCCOC(=O)COc1ccc2ccc(=O)oc2c1 [Compound 13, 6-(methyl(3-(2-((2-oxo-2H-chromen-7-yl)oxy)acetoxy)propyl)amino)hexyl anthracene-9-carboxylate] | 1.43 | 2.45 | > 10000 | > 10000 | 82.7 | 9.1 | – | nine | – |
| COc1cc(C(=O)OCCCCCCN(C)CCCOC(=O)c2ccc(S(N)(=O)=O)cc2)cc(OC)c1OC [Compound 24, 6-(methyl(3-((4-sulfamoylbenzoyl)oxy)propyl)amino)hexyl 3,4,5-trimethoxybenzoate] | 1.42 | 2.88 | 83.5 | 8.9 | 25.3 | 57.6 | 6.5 | – | twice |
| COc1cc(/C=C/C(=O)OCCCCCN(C)CCCOC(=O)c2ccc(S(N)(=O)=O)cc2)cc(OC)c1OC [Compound 17, (E)-3-(methyl(5-((3-(3,4,5-trimethoxyphenyl)acryloyl)oxy)pentyl)amino)propyl 4-sulfamoyl benzoate] | 1.13 | 3.90 | 56.6 | 204 | 215 | 33.1 | – | – | – |
| COc1cc(/C=C/C(=O)OCCCCCCN(C)CCCCOC(=O)COc2ccc3ccc(=O)oc3c2)cc(OC)c1OC [Compound 6, (E)-6-(methyl(4-(2-((2-oxo-2H-chromen-7-yl)oxy)acetoxy)butyl)amino)hexyl 3-(3,4,5-trimethoxyphenyl)acrylate] | 1.39 | 1.98 | > 10000 | > 10000 | 40.2 | 36.4 | – | – | – |
| COc1cc(/C=C/C(=O)OCCCCCCN(C)CCCCOC(=O)c2ccc(S(N)(=O)=O)cc2)cc(OC)c1OC [Compound 20, (E)-4-(methyl(6-((3-(3,4,5-trimethoxyphenyl)acryloyl)oxy)hexyl)amino)butyl 4-sulfamoyl benzoate] | 1.01 | 2.58 | 84.5 | 14 | 33.9 | 41.7 | 3 | – | – |
| CN(CCCCCCCOC(=O)c1c2ccccc2cc2ccccc12)CCOC(=O)c1ccc(S(N)(=O)=O)cc1 [Compound 28, 7-(methyl(2-((4-sulfamoylbenzoyl)oxy)ethyl)amino)heptyl anthracene-9-carboxylate] | 1.45 | 4.25 | 238 | 475 | 20.6 | 23.5 | – | – | – |
| COc1cc(/C=C/C(=O)OCCCN(C)CCCOC(=O)c2ccc(S(N)(=O)=O)cc2)cc(OC)c1OC [Compound 15, (E)-3-(methyl(3-((3-(3,4,5-trimethoxyphenyl)acryloyl)oxy)propyl)amino)propyl 4-sulfamoyl benzoate] | 1.00 | 2.30 | 55.1 | 152 | 178 | 91 | – | – | – |
